From patent US10220024B2, “Method of inhibiting cancer cell, method for detecting cancer cell, and system for detecting cancer cell” (CANON KABUSHIKI KAISHA, priority 2012, dated 2019)
Like-named read-outs stand apart in the source and are kept apart here.

Columns and labels:
[1] = system: Human pancreas cancer cells, KLM-1; assay: Cancer cell inhibitory (growth suppressive) action against pancreatic cancer cells, CellTiter-Glo viable cell count; format: cell-based; details: KLM1, KLM-1, 10 μg/mL, 24 hours
Method: Observation on cancer cell inhibitory (growth suppressive) action against pancreatic cancer cells Human pancreas cancer cells, KLM-1, were pre-cultured in RPMI1640 medium containing 10% FBS at 37° C. in a 5% CO2 ambient. Thereafter, 4,000 cells were seeded per well of a 96-well plate and further cultured for 24 hours. Subsequently, Compound (1) was added to the medium so as to obtain a final concentration of 10 μg/mL and cultured at 37° C. for 24 hours in a 5% CO2 ambient. The cultured cells were analyzed for viable cell count according to CellTiter-Glo Luminescent Cell Viability Assay (manufactured by Promega KK.). As a reference, the number of cells cultured in a medium containing a 0.1% dimethylsulfoxide solution (hereinafter, simply referred to as DMSO) in place of a medium containing Compound (1), in the aforementioned operation, was regarded (100%).
Viable cell count was analyzed in the same manner as in Experimental Example 1 except that Compound (1) of Experimental Example 1 was changed to compounds shown in Table 2.
Viable cell count was analyzed in the same manner as in Experimental Example 1 except that Compound (1) was changed to comparative compounds 1 to 4.
Viable cell counts of Experimental Examples 1 to 7 and Comparative Examples 1 to 4 were analyzed to obtain growth rates.
Evaluation of cancer cell inhibition against the pancreatic cancer cells (KLM-1) (growth suppression) was made based on the following criteria. Note that the growth rate in Examples herein is a numerical value of the number of cells obtained after culture relative to the number of cells (regarded as 100) grown in a medium containing 0.1% DMSO. Evaluation of cancer cell inhibition against the pancreatic cancer cells (KLM-1) was made as follows. • A: Cancer cell growth rate is less than 20% (cancer cell inhibitory (growth suppressive) effect is extremely high) • B: Cancer cell growth rate is 20% or more and less than 50% (cancer cell inhibitory (growth suppressive) effect is high) • C: Cancer cell growth rate is 50% or more (cancer cell inhibitory (growth suppressive) effect is low)

[2] = system: K562 ALDH (+) fraction (cancer stem cells); assay: Cancer stem-cell selective inhibitory action against chronic myelocytic leukemia cells, ALDH (+) fraction, CellTiter-Glo; format: cell-based; details: Homo sapiens, 24 hours; for activity at 0.05 µg/mL: 0.05 μg/mL; for activity at 0.5 µg/mL: 0.5 μg/mL; for activity at 1 µg/mL: 1 μg/mL
Method: Human chronic myelocytic leukemia cells, K562, were pre-cultured in RPMI1640 medium containing 10% FBS at 37° C. in a 5% CO2 ambient. Then, a fraction containing 80% or more of cancer stem cells was extracted by use of ALDEFLUOR reagent (manufactured by VERITAS Corporation) and FACSAria flow cytometry (manufactured by Nippon Becton, Dickinson and Company). Subsequently, Compound (5) was added to the medium so as to obtain a final concentration of 10 μg/mL and cultured at 37° C. for 24 hours in a 5% CO2 ambient. The cultured cells were analyzed for viable cell count according to CellTiter-Glo Luminescent Cell Viability Assay (manufactured by Promega KK.). As a reference, the number of cells cultured in a medium containing a 0.1% dimethylsulfoxide solution (hereinafter, simply referred to as DMSO) in place of a medium containing Compound (1), in the aforementioned operation, was used as 0.1. Note that hereinafter, an ALDEFLUOR reagent positive fraction (deemed as cancer stem cells) is represented by ALDH (+), whereas an ALDEFLUOR reagent negative fraction (not deemed as cancer stem cells) is represented by ALDH (−), in some cases.
The same operation as in Experimental Example 12 was repeated except that Compound (5) in Experimental Example 12 was changed to the compounds shown in Table 4 and final concentrations shown in Table 4 were used and viable cell counts were separately analyzed. Note that the growth rate in Examples herein is a numerical value of the number of cells obtained after culture relative to the number of cells (regarded as 0.1) grown in a medium containing 0.1% DMSO.
The same operation as in Experimental Example 12 was repeated except that Compound (5) in Experimental Example 12 was changed to Imatinib (manufactured by NOVARTIS), which is a general anticancer drug, and comparative compounds shown in Table 4 and final concentrations shown in Table 4 were used and viable cell counts were separately analyzed.
The growth suppressive effect of cancer stem cells was evaluated based on the following criteria. Note that the growth rate in Examples herein is a numerical value relative to the number of cells (regarded as 0.1) grown in a medium containing 0.1% DMSO. • A: The value of ALDH (+) is less than 0.5 (growth suppressive effect against cancer stem cells is extremely high) • B: The value of ALDH (+) is 0.5 or more and less than 0.95 (growth suppressive effect against cancer stem cells is high) • C: The value of ALDH (+) is 0.95 or more (no growth suppressive effect against cancer stem cells)
Furthermore, superiority of cancer stem cells was evaluated by comparing cancer stem cells to cancer cells based on the following criteria. ALDH (+) represents cancer stem cells; whereas ALDH (−) represents general cancer cells. • A: The value of ALDH (+)/ALDH (−) is less than 0.8 (selective inhibitory effect against cancer stem cells is extremely high) • B: The value of ALDH (+)/ALDH (−) is 0.8 or more and less than 0.95 (selective inhibitory effect against cancer stem cells is high) • C: The value of ALDH (+)/ALDH (−) is 0.95 or more (no selective inhibitory effect against cancer stem cells)

K562 ALDH (+) cells = assay: Cancer stem-cell selective staining, fluorescent microscopy, ALDH (+) cells; format: cell-based, Human
Method: The cells cultured for 24 hours in Experimental Example 16 were subjected to nuclear staining with Hoechest33342 (manufactured by Dojindo Laboratories) and a fluorescent image observed under AXIOVERT200M inverted fluorescent microscope (manufactured by Carl Zeiss) was photographed.

[3] = read-out: Growth suppression evaluated
[4] = relative to 0.1% DMSO, read-out: ALDH(+) (growth rate)

COc1ccc(N2c3ccc(/C=C/C4=[N+](C)c5ccccc5C4(C)C)cc3C3CCCC32)cc1 (stereo not shown) [Compound 11]
activity at 10 µg/mL ([1]; read-out: Evaluation (cancer cell growth rate)): < 20% | activity at 10 µg/mL ([1]; relative to 0.1% DMSO (100), read-out: Cancer cell growth rate (%)): 2.6% | activity at 0.05 µg/mL [2, 3]: 50 to 95% | activity at 0.05 µg/mL [2, 4]: 65% | activity at 0.5 µg/mL [2, 3]: < 50% | activity at 0.5 µg/mL [2, 4]: 32% | activity at 1 µg/mL [2, 3]: < 50% | activity at 1 µg/mL [2, 4]: 12% | Selective staining of cancer stem cells (K562 ALDH (+) cells; ALDH (+) versus ALDH (−) K562 cells): selectively stained | ALDH(+) (ratio of ALDH (+) cells stained) (K562 ALDH (+) cells; cells cultured for 24 hours in Experimental Example 16 (1 μg/mL)): 76.7%
